Assay results: a melting point compilation (Tetko et al.; mined from patent text by program, amines drawn as free bases though some values may be those of a salt)
Residues, ends and D or L forms follow the SMILES beside them. *: point of attachment. ONp = O=[N+]([O-])c1ccc(O*)cc1

Structure (SMILES) | melting point [°C]
O=C(O)COc1cccc(CCn2ncc(-c3ccccc3)c2-c2ccccc2)c1 | 133 to 138
COc1ncccc1-c1cccn2nc(Nc3ccc(C4CCN(CC(=O)N(C)C)CC4)cc3)nc12 | 173 to 175
O=C1c2ccccc2C(=O)N1CCCCN1CCN(C(c2ccccc2)c2ccccc2)CC1 | 125 to 129
O=C(Cc1cccs1)c1c(O)sc2ccccc12 | 99 to 101
O=C(O)/C=C/C(=O)/C=C/c1ccc(C(F)(F)F)cc1 | 192 to 195
CN(c1ccc(O)cc1)c1ncnc2cc(Cl)ccc12 | 165
CN(C)c1ccc(C(=O)C(F)c2cccc(Cl)c2)cc1 (centres undefined) | 90 to 92
CC(=O)Nc1c(I)c(C(=O)O)c(I)c(C(=O)NCC(=O)O)c1I | 201 to 202
O=C1c2cc(O)cc(O)c2C(=O)C1c1ccc(O)cc1 (centres undefined) | 180
CCCCNC(=O)ON1C(C)(C)CC(OC(=O)C(CC)(CC)C(=O)OC2CC(C)(C)N(OC(=O)NCCCC)C(C)(C)C2)CC1(C)C | 166 to 169
CCCCCCCCCCCC(=O)c1cn(CCCC(=O)O)c2ccccc12 | 88 to 90
CS(=O)(=O)Nc1cccc(Br)n1 | 90 to 94
CC(=O)Nc1nc(-c2ccccc2)c(CCOC(C)=O)c2ncnn12 | 79 to 80
Cc1ccc(Sc2ccccc2)c(CC(=O)O)c1 | 83 to 84
O=C(O)c1ccc2c(=O)nc(-c3ccccn3)sc2c1 | 295
CC(=O)Nc1ccccc1CS(=O)c1nccn1-c1ccccn1 (centres undefined) | 172 to 173
COc1ccccc1CN1C(=O)C2CCCC2N(C(=O)CN2C(=O)c3ccccc3C2=O)c2ccccc21 (centres undefined) | 261 to 272
O=C(Nc1cc2ccccc2cn1)c1ncccc1NCc1ccncc1 | 168
N=C(Nc1ccc(CNC=Nc2cccs2)cc1)c1cccs1 | 200 to 201
Nc1nc(C(Br)Br)nc(C(Br)Br)n1 | 171 to 173
COc1ccc(-c2nc3sccn3c2/C=C/C(=O)c2ccc[nH]2)cc1 | 177 to 179
O=C(Nc1ccc(C(=O)N2Cc3ccccc3Cc3ccccc32)cc1)c1ccc(F)cc1F | 215 to 217
Cn1nc(-c2cc(C=NOCC(=O)O)c(Cl)cc2F)c(Cl)c1C(F)(F)F | 170
CC(C)c1cccc(C(C)C)c1NC(=O)NCC1(SCc2ccccc2)CCCCC1 | 156
CNC(=O)NN(CC(=O)OC)c1cccc(Cl)c1 | 121 to 122
CCN(CC)C(=O)NC1CC2c3cccc4[nH]c(CCc5ccc(OC)cc5)c(c34)CC2N(C)C1 (centres undefined) | 147 to 149
CC(=O)OCc1cc2c(c3c1CCC3)C(=O)c1ccccc1C2=O | 160 to 161

Structure (SMILES) | melting point [°C]
Cc1[nH]c2ccccc2c1[C@H]1CC[C@@H](N2CCN(c3cccc4[nH]ccc34)CC2)CC1 | 279 to 280
O=C1O[C@H](c2ccccc2)[C@H](c2ccccc2)N[C@H]1Cc1ccccc1C1CCCCC1 | 159 to 160
CC(C)(C)CC(C)(C)c1cc(-n2nc3ccc(C(F)(F)F)cc3n2)c(O)c(C(C)(C)c2ccccc2)c1 | 119 to 121
O=C1CCC(c2ccc(OC3CCN(C4CCC4)CC3)cc2F)=NN1 | > 300
CC(C)CC(NC(=O)C1CCCN1)C(=O)NCC(=O)Oc1ccc([N+](=O)[O-])cc1 (stereo not drawn) (H-Pro-Leu-Gly-ONp; configuration not given here) | 173
C=CCCCCOc1ccc(OCCCCC=C)cc1 | 29 to 30
CC1(C)OC(=O)Nc2ccc(-c3cccc(C(=O)c4ccccc4)c3)cc21 | 156 to 157
Cc1oc(-c2ccccc2)nc1COc1ccc(CCc2nnn[nH]2)cc1 | 203 to 204
CC(=O)Nc1ccc2c(c1)C(=O)c1cc(NC(C)=O)ccc1C2=O | 340
CNC(=O)[C@@H](C[C@H](O)[C@H](CC(C)C)NC(=O)OC(C)(C)C)C(C)(C)O | 121 to 123
Cn1nc(Cl)c(C(=O)C(Br)c2ccccc2)c1Cl (centres undefined) | 74.5 to 75.5
O=Cc1ccc(OC(=O)c2ccccc2)c([N+](=O)[O-])c1 | 110 to 112
COc1ccc2cc(-c3ccc(Cl)c(-n4nc(C)c(C)n4)c3)c(=O)oc2c1 | 180
CC(=O)OC1C(C)OC(Oc2ncn(Cc3ccc([N+](=O)[O-])cc3)c2C(N)=O)C(OC(C)=O)C1OC(C)=O (centres undefined) | 103 to 105
O=C(O)c1cc2sccc2cn1 | 212
N[C@@H]1Cc2c(Br)ccc3c2[C@@H](C1)CN3C(=O)c1ccccc1 | 169 to 173
CC(C)CC(NC(=O)C(C)S)C(=O)O (centres undefined) | 77 to 84
Cn1c(C(F)(F)F)cc(=O)n(-c2cc(OCCNC=O)c(Cl)cc2F)c1=O | 128 to 131
Cc1ccccc1C=C1CCn2c1nc1ccc(C(=O)O)cc1c2=O | 285 to 287
COc1cccc2c1C[C@@H](NC=O)CC2 | 140 to 141
CN(C)c1ccc(NC(=O)N(CC2CCCCC2)C[C@H]2CCC[C@H](CN(CC3CCCCC3)C(=O)Nc3ccc(N(C)C)cc3)C2)cc1 (relative stereo) | 136 to 140
COc1ccccc1C1CCNC(N)=N1 (centres undefined) | 189 to 191
CCCCCCN(CCCCCC)CC1CCN(C(=O)Oc2ccc(Oc3ccccc3)cc2)CC1 | 46 to 47
c1ccc(C2C3=NCCN3CCc3ccccc32)cc1 (centres undefined) | 122 to 123
CCOc1ncnc2c1sc1nc(N(C)C)c3c(c12)CC(C)(C)CC3 | 220 to 221
O=C(O)c1ccccc1-c1nnc(-c2ccccc2)o1 | 173 to 175
O=C(O)COc1ccc2cc(CNC(=O)c3cnn(-c4ccc(Cl)cc4)c3C(F)(F)F)ccc2c1Br | 245

Continued, values first:

melting point [°C] | Structure (SMILES)
130 | C=CCOC(=O)C1=C(C)NC(C)=C(C(=O)OC)C1c1ccccc1F (centres undefined)
205 to 206 | CC(C)(C)OC(=O)c1nc(-c2ccccc2)[nH]c1-c1ccncc1
148 | CC(=O)N(C(C)=O)c1c(OCc2ccccc2)cc(Br)cc1[N+](=O)[O-]
160 to 161 | CC(C)C(=O)OC1C(n2ccc(=O)[nH]c2=O)OC(COC(=O)c2ccc(Cl)cc2)C1(C#C[Si](C)(C)C)OC(=O)C(C)C (centres undefined)
138 to 145 | CC(C)(C)[Si](C)(C)OC(CCCOC1CCCCO1)COc1ccc2c(=O)cc(-c3ccccc3)oc2c1 (centres undefined)
188 | CCCCN1CCC(C(=O)O)(S(=O)(=O)c2ccc(OCCC(C)C)cc2)CC1
76 to 77 | CCOC(=O)C(C#N)(CCBr)c1cc(OC)c(OC)c(OC)c1 (centres undefined)
159 to 165 | CCCCCC(=NOC)c1cc(C#N)c(=O)[nH]c1C
169 to 172 | COCCC1(C(=O)N[C@@H](Cc2ccc(NC(=O)c3cc(C#N)ccc3Cl)cc2)C(=O)O)CCCC1
178 to 180 | CC(=O)NC[C@H]1CN(c2ccc(-c3nc(Cn4cccn4)cs3)c(F)c2)C(=O)O1
131 to 133 | CCCCc1ncc(C(C)CC(=O)O)n1Cc1ccccc1Cl (centres undefined)
121 to 122 | COc1ccc(C2CN(C)CCC2=NO)cc1 (centres undefined)
174 to 176 | CC1C(=O)c2c(cc(OCC(=O)O)c(Cl)c2Cl)C1C (centres undefined)
241 to 242 | COc1ccc(-n2ncc(C(=O)O)c2Cl)cc1
235 | O=C(O)c1ccc(-c2ccc(OCCCCCCO)cc2)cc1
290 | CCOC(=O)c1cnn(C)c1C(=O)Nc1ccn2nc(-c3cccc(F)n3)nc2c1
130 to 133 | CCOC(=O)CSc1ccc2nncn2n1
80 to 82 | COC(=O)C(C#N)c1cccc2ccc(OC)cc12 (centres undefined)
96 to 98 | CC1(C)COS(=O)Oc2ccc(OS(C)(=O)=O)cc21 (centres undefined)
77 to 79 | CCN(C)CCc1[nH]c2ccccc2c1CSc1ccccc1
162 to 165 | CN(C)Cc1cccc(-c2cc(C(N)=O)ccc2C(N)=O)c1
> 270 | CCOC(=O)c1ccc(C(=O)Nc2ccc3c(c2)N(C)C(=O)C(C)(C)C(=O)N3C)cc1
104 | COc1cc([N+](=O)[O-])c(NCCO)c([N+](=O)[O-])c1

melting point [°C] | Structure (SMILES)
60 | CC(C)(C)OC(=O)C1(Cl)OC1c1ccc([N+](=O)[O-])cc1 (centres undefined)
145 to 151 | CCC(CC)COc1cccc2nc(C)c(C(=O)O)c(N)c12
64 to 66 | C#Cc1cn(C2CC(O)C(COC(=O)C(C)(C)C)O2)c(=O)[nH]c1=O (centres undefined)
111 to 112 | C#Cc1ccc2cc(OC)ccc2c1
146 to 147 | COC(=O)c1c(-c2ccc(F)cc2)nc(N)nc1C(C)C
308 to 310 | N#Cc1cc(O)cc2nc(-c3ccc(O)c(F)c3)oc12
75 | CCCCCCCCCCCCCCCCOC(=O)CCCCCCCCCCCCCCC
52 | COc1cccc(C(=O)c2cccc(Cl)c2)c1
207 to 208 | COC(=O)c1sccc1Nc1ccc(Cl)cc1[N+](=O)[O-]
147 to 149 | Cc1ccc(CNC(=O)C(=O)NCCc2ccccn2)n1C
203 to 205 | Cn1c(=O)c2cc([N+](=O)[O-])cnc2n(C)c1=O
174 to 176 | COC(=O)c1ccc2c(c1)c(=O)cc(-c1ccccc1)n2C
72 to 75 | CC(=O)c1cc(CN2CCN(CCO)CC2)ccc1O
176 to 179 | Cc1nc2cccc(OCC(C)(C)C(=O)NCC(C)C)c2c(N)c1C(=O)O
139 to 140 | COCOc1cc(C(F)(F)F)ccc1-c1cc(-c2cccc([N+](=O)[O-])c2)c(C#N)c(NC(=O)c2cccs2)n1
154 to 156 | COC(=O)c1cc(S(=O)(=O)N(C)C)c(F)c(F)c1Nc1ccc(I)cc1Cl
170 to 173 | N#Cc1c([N+](=O)[O-])ccc(N2CCCC2)c1Cl
39 to 40 | O=C(CCCCCCSc1ccccc1)c1ncco1
99.7 to 100 | Cc1cc(C(=O)N2C(C)CCCC2C)ccc1[N+](=O)[O-] (centres undefined)
116 to 118 | CCN(CC)CCCNc1nnc(-c2ccc(F)c(F)c2Nc2ccc(I)cc2F)o1
95 to 96 | CCCCc1nc2c(N)nc3ccccc3c2n1CCNC(=O)CCCCC1SCC2NC(=N)NC21 (centres undefined)
67 to 68 | COC(=O)c1ccc(CCSC(C)=O)s1
